Test results as given in patent US20160130278A1 (TAISHO PHARMACEUTICAL CO., LTD, priority 2013, published 2016).

What follows are molecules tested against T1, human type 1 glycine transporter (GlyT1) (Homo sapiens, UniProt P48067) (assay: Glycine uptake inhibition experiment ([3H]glycine uptake)). Conditions: GlyT1.
T1 construct: T98G cells (glioma cells) expressing human type 1 glycine transporter (GlyT1) were used
T1 sequence (P48067 1-706): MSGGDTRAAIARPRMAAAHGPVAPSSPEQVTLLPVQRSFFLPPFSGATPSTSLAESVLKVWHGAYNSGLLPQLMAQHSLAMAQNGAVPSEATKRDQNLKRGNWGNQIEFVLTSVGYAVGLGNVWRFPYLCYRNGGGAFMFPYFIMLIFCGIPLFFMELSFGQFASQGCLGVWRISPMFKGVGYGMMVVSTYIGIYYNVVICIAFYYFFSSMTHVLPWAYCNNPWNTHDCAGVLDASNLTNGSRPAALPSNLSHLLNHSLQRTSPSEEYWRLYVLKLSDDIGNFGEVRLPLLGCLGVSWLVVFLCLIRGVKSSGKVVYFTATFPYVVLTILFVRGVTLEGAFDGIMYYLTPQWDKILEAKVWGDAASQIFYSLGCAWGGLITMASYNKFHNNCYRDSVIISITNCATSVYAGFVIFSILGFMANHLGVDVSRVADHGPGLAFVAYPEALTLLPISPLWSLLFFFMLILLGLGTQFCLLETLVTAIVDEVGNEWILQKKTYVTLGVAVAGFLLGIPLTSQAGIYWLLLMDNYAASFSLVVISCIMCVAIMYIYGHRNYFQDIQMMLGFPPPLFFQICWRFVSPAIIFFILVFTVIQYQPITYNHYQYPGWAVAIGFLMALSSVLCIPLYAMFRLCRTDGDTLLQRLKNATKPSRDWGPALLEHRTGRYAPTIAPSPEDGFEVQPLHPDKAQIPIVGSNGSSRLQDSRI
Format: cell-based
How it was run: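 T98G glioma cells expressing human GlyT1 were pretreated 10 min with compound in HEPES buffer pH 7.4 (0.2% BSA), then incubated with compound plus 250 nM final [3H]glycine for 15 min at room temperature. Intracellular radioactivity was counted after NaOH lysis; 10 μM ALX5407 defined non-specific uptake. IC50 came from 10^−9–10^−5 M curves.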

Compound | IC50
O=C(NC(c1cccc(-c2ccncc2)c1)C1(O)CCCC1)c1cccc(C(F)(F)F)c1Cl (stereo not shown) [Compound 4, 2-chloro-N-{(1-hydroxycyclopentyl)[3-(pyridin-4-yl)phenyl]methyl}-3-(trifluoromethyl)benzamide] | 400 nM
N#Cc1ccc(-c2cccc(C(NC(=O)c3cccc(C(F)(F)F)c3Cl)C3(O)CCCC3)c2)cc1 (stereo not shown) [Compound 5, 2-chloro-N-[(4′-cyanobiphenyl-3-yl)(1-hydroxycyclopentyl)methyl]-3-(trifluoromethyl)benzamide] | 880 nM
CC(=O)c1ccc(-c2cccc(C(NC(=O)c3cccc(C(F)(F)F)c3Cl)C3(O)CCCC3)c2)cc1 (stereo not shown) [Compound 6, N-[(4′-acetylbiphenyl-3-yl)(1-hydroxycyclopentyl)methyl]-2-chloro-3-(trifluoromethyl)benzamide] | 670 nM
O=C(NC(c1cccc(-c2cncnc2)c1)C1(O)CCCC1)c1cccc(C(F)(F)F)c1Cl (stereo not shown) [Compound 7, 2-chloro-N-{(1-hydroxycyclopentyl)[3-(pyrimidin-5-yl)phenyl]methyl}-3-(trifluoromethyl)benzamide] | 290 nM
CCn1cc(-c2cccc(C(NC(=O)c3nccc(C(F)(F)F)c3Cl)C3(O)CCCC3)c2)cn1 (stereo not shown) [Compound 10, 3-chloro-N-{[3-(1-ethyl-1H-pyrazol-4-yl)phenyl](1-hydroxycyclopentyl)methyl}-4-(trifluoromethyl)pyridine-2-carboxamide] | 13 nM
CCn1cc(-c2cccc(C(NC(=O)c3nccc(C(F)(F)F)c3Cl)C3(O)CCCCC3)c2)cn1 (stereo not shown) [Compound 15, 3-chloro-N-{[3-(1-ethyl-1H-pyrazol-4-yl)phenyl](1-hydroxycyclohexyl)methyl}-4-(trifluoromethyl)pyridine-2-carboxamide] | 8.5 nM
CCn1cc(-c2cccc(C(NC(=O)c3cccc(C(F)(F)F)c3Cl)C3(O)CCCCC3)c2)cn1 (stereo not shown) [Compound 16, 2-chloro-N-{[3-(1-ethyl-1H-pyrazol-4-yl)phenyl](1-hydroxycyclohexyl)methyl}-3-(trifluoromethyl)benzamide] | 44 nM
O=C(NC(c1cccc(-c2cn[nH]c2)c1)C1(O)CCCC1)c1nccc(C(F)(F)F)c1Cl (stereo not shown) [Compound 17, 3-chloro-N-{(1-hydroxycyclopentyl)[3-(1H-pyrazol-4-yl)phenyl]methyl}-4-(trifluoromethyl)pyridine-2-carboxamide] | 14 nM
O=C(NC(c1cccc(-c2cncnc2)c1)C1(O)CCCC1)c1nccc(C(F)(F)F)c1Cl (stereo not shown) [Compound 18, 3-chloro-N-{(1-hydroxycyclopentyl)[3-(pyrimidin-5-yl)phenyl]methyl}-4-(trifluoromethyl)pyridine-2-carboxamide] | 92 nM
O=C(NC(c1cccc(-c2ccncc2)c1)C1(O)CCCC1)c1nccc(C(F)(F)F)c1Cl (stereo not shown) [Compound 19, 3-chloro-N-{(1-hydroxycyclopentyl)[3-(pyridin-4-yl)phenyl]methyl}-4-(trifluoromethyl)pyridine-2-carboxamide] | 34 nM
O=C(NC(c1cccc(-c2cccnc2)c1)C1(O)CCCC1)c1nccc(C(F)(F)F)c1Cl (stereo not shown) [Compound 20, 3-chloro-N-{(1-hydroxycyclopentyl)[3-(pyridin-3-yl)phenyl]methyl}-4-(trifluoromethyl)pyridine-2-carboxamide] | 17 nM
N#Cc1cccc(C(NC(=O)c2nccc(C(F)(F)F)c2Cl)C2(O)CCCC2)c1 (stereo not shown) [Compound 23, 3-chloro-N-[(3-cyanophenyl)(1-hydroxycyclopentyl)methyl]-4-(trifluoromethyl)pyridine-2-carboxamide] | 300 nM
O=C(NC(c1cccc(-c2cccnc2)c1)C1(O)CCCCC1)c1nccc(C(F)(F)F)c1Cl (stereo not shown) [Compound 26, 3-chloro-N-{(hydroxycyclohexyl)[3-(pyridin-3-yl)phenyl]methyl}-4-(trifluoromethyl)pyridine-2-carboxamide] | 80 nM
O=C(NC(c1ccccc1Br)C1(O)CCCC1)c1nccc(C(F)(F)F)c1Cl (stereo not shown) [Compound 32, N-[(2-bromophenyl)(1-hydroxycyclopentyl)methyl]-3-chloro-4-(trifluoromethyl)pyridine-2-carboxamide] | 60 nM

Further lines, results first:

IC50 | Compound
110 nM | CCn1cc(-c2cccc(C(NC(=O)c3cccc(C(F)(F)F)c3Cl)C3(O)CCCC3)c2)cn1 (stereo not shown) [Compound 1, 2-chloro-N-{[3-(1-ethyl-1H-pyrazol-4-yl)phenyl](1-hydroxycyclopentyl)methyl}-3-(trifluoromethyl)benzamide]
670 nM | O=C(NC(c1cccc(Br)c1)C1(O)CCCC1)c1cccc(C(F)(F)F)c1Cl (stereo not shown) [Compound 2, N-[(3-bromophenyl)(1-hydroxycyclopentyl)methyl]-2-chloro-3-(trifluoromethyl)benzamide]
360 nM | O=C(NC(c1cccc(-c2cccnc2)c1)C1(O)CCCC1)c1cccc(C(F)(F)F)c1Cl (stereo not shown) [Compound 3, 2-chloro-N-{(1-hydroxycyclopentyl)[3-(pyridin-3-yl)phenyl]methyl}-3-(trifluoromethyl)benzamide]
400 nM | N#Cc1cccc(C(NC(=O)c2cccc(C(F)(F)F)c2Cl)C2(O)CCCC2)c1 (stereo not shown) [Compound 8, 2-chloro-N-[(3-cyanophenyl)(1-hydroxycyclopentyl)methyl]-3-(trifluoromethyl)benzamide]
110 nM | O=C(NC(c1cccc(-c2cn[nH]c2)c1)C1(O)CCCC1)c1cccc(C(F)(F)F)c1Cl (stereo not shown) [Compound 9, 2-chloro-N-{(1-hydroxycyclopentyl)[3-(1H-pyrazol-4-yl)phenyl]methyl}-3-(trifluoromethyl)benzamide]
1000 nM | O=C(NC(c1ccccc1)C1(O)CCCC1)c1cccc(C(F)(F)F)c1Cl (stereo not shown) [Compound 11, 2-chloro-N-[(1-hydroxycyclopentyl)(phenyl)methyl]-3-(trifluoromethyl)benzamide]
480 nM | O=C(NC(c1ccccc1)C1(O)CCCC1)c1nccc(C(F)(F)F)c1Cl (stereo not shown) [Compound 12, 3-chloro-N-[(1-hydroxycyclopentyl)(phenyl)methyl]-4-(trifluoromethyl)pyridine-2-carboxamide]
4600 nM | CCn1cc(-c2cccc(C(NC(=O)c3ncccc3Cl)C3(O)CCCC3)c2)cn1 (stereo not shown) [Compound 21, 3-chloro-N-{[3-(1-ethyl-1H-pyrazol-4-yl)phenyl](1-hydroxycyclopentyl)methyl}pyridine-2-carboxamide]
110 nM | CCn1cc(-c2cccc(C(NC(=O)c3nccc4ccccc34)C3(O)CCCC3)c2)cn1 (stereo not shown) [Compound 22, N-{[3-(1-ethyl-1H-pyrazol-4-yl)phenyl](1-hydroxycyclopentyl)methyl}isoquinoline-1-carboxamide]
2000 nM | COc1cc(C(F)(F)F)cc(C(F)(F)F)c1C(=O)NC(c1ccccc1)C1(O)CCCC1 (stereo not shown) [Compound 29, N-[(1-hydroxycyclopentyl)(phenyl)methyl]-2-methoxy-4,6-bis(trifluoromethyl)benzamide]
6500 nM | Cc1cccc(C)c1C(=O)NC(c1ccccc1)C1(O)CCCC1 (stereo not shown) [Compound 30, N-[(1-hydroxycyclopentyl)(phenyl)methyl]-2,6-dimethylbenzamide]
170 nM | O=C(NC(c1cccc(Br)c1)C1(O)CCCC1)c1nccc(C(F)(F)F)c1Cl (stereo not shown) [Compound 31, N-[(3-bromophenyl)(1-hydroxycyclopentyl)metyl]-3-chloro-4-(trifluoromethyl)pyridine-2-carboxamide]
82 nM | O=C(N[C@@H](c1cccc(Br)c1)C1(O)CCCC1)c1nccc(C(F)(F)F)c1Cl [Compound 33, N-[(S)-(3-bromophenyl)(1-hydroxycyclopentyl)methyl]-3-chloro-4-(trifluoromethyl)pyridine-2-carboxamide]
1000 nM | O=C(N[C@H](c1cccc(Br)c1)C1(O)CCCC1)c1nccc(C(F)(F)F)c1Cl [Compound 34, N-[(R)-(3-bromophenyl)(1-hydroxycyclopentyl)methyl]-3-chloro-4-(trifluoromethyl)pyridine-2-carboxamide]

Same assay, conditions: human GlyT1

IC50 | Compound
1000 nM | O=C(NC(c1ccccc1Cl)C1(O)CCC(F)(F)CC1)c1ncc(C(F)(F)F)cc1-n1nccn1 (single isomer, unassigned) [Compound 407, N-[(2-chlorophenyl)(4,4-difluoro-1-hydroxycyclohexyl)methyl]-3-(2H-1,2,3-triazol-2-yl)-5-(trifluoromethyl)pyridine-2-carboxamide]
2200 nM | O=C(NC(c1ccccc1Cl)C1(O)CCC(F)(F)CC1)c1ccc(C(F)(F)F)nc1-n1nccn1 (single isomer, unassigned) [Compound 408, N-[(2-chlorophenyl)(4,4-difluoro-1-hydroxycyclohexyl)methyl]-2-(2H-1,2,3-triazol-2-yl)-6-(trifluoromethyl)pyridine-3-carboxamide]
1100 nM | O=C(NC(c1ccccc1Cl)C1(O)CCC(F)(F)CC1)c1ccc(C(F)(F)F)nc1Cl (single isomer, unassigned) [Compound 409, 2-chloro-N-[(2-chlorophenyl)(4,4-difluoro-1-hydroxycyclohexyl)methyl]-6-(trifluoromethyl)pyridine-3-carboxamide]
